Assay results from patent US10004738B2, “Combination treatment comprising administration of 2-amino-3,5,5-trifluoro-3,4,5,6-tetrahydropyridines” (H. Lundbeck A/S, priority 2015, dated 2018).

Biological target: BACE1 enzyme (Homo sapiens (Human), UniProt P56817)
Experiment: BACE1 efficacy assay (FRET-based, commercial BACE1 kit)
Type: biochemical
Conditions: test compound 10 μM, 3 nM enzyme, 250 nM substrate
Protocol: The efficacy assay was performed as a FRET-based assay using a commercially available BACE1 kit (Life Technologies, P2985). 2 μl test compound at 10 μM (final concentration) and 15 μl BACE1 enzyme from the kit (final concentration 3 nM) were preincubated for 15 minutes at room temperature before addition of 15 μl of substrate from the kit (250 nM final concentration) and incubated for additional 90 minutes at room temperature. The assay plate was subsequently read in a Pherastar (Ex540/Em590). […] The efficacy of the test compounds was evaluated at 10 μM (final concentration) and defined as the percent inhibition of the enzyme activity using the equation % inhibition=100%−normalized enzyme activity in percent.

BACE1 enzyme, sequence (P56817 46-501): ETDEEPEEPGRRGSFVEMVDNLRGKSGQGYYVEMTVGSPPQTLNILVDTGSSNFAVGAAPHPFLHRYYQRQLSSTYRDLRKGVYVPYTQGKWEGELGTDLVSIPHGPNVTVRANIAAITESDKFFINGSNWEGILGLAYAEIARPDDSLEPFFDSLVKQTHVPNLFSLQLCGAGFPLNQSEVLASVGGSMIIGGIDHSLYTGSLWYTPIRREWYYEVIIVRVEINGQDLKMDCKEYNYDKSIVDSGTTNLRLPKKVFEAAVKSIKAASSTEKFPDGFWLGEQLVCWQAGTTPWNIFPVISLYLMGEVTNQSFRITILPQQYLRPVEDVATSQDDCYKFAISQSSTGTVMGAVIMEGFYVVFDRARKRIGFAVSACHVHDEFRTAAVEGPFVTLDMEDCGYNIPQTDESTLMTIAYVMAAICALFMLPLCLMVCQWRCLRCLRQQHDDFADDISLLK

Compound	inhibition at 10 µM [%]
C[C@@]1(F)CC(F)(F)[C@@](C)(c2cc(NC(=O)c3ccc(F)cn3)ccc2F)N=C1N [Compound 2, N-(3-((2R,5R)-6-amino-3,3,5-trifluoro-2,5-dimethyl-2,3,4,5-tetrahydropyridin-2-yl)-4-fluorophenyl)-5-fluoropicolinamide]	100
C[C@]1(F)CC(F)(F)[C@@](C)(c2cc(NC(=O)c3ccc(Cl)cn3)ccc2F)N=C1N [Compound 3, N-(3-((2R,5S)-6-amino-3,3,5-trifluoro-2,5-dimethyl-2,3,4,5-tetrahydropyridin-2-yl)-4-fluorophenyl)-5-chloropicolinamide]	102
C[C@]1(F)CC(F)(F)[C@@](C)(c2cc(NC(=O)c3ccc(C#N)cn3)ccc2F)N=C1N [Compound 4, N-(3-((2R,5S)-6-amino-3,3,5-trifluoro-2,5-dimethyl-2,3,4,5-tetrahydropyridin-2-yl)-4-fluorophenyl)-5-cyanopicolinamide]	99
C[C@]1(F)CC(F)(F)[C@@](C)(c2cc(NC(=O)c3ccn(C(F)F)n3)ccc2F)N=C1N [Compound 6, N-(3-((2R,5S)-6-amino-3,3,5-trifluoro-2,5-dimethyl-2,3,4,5-tetrahydropyridin-2-yl)-4-fluorophenyl)-1-(difluoromethyl)-1H-pyrazole-3-carboxamide]	100
Cc1nc(C(=O)Nc2ccc(F)c([C@@]3(C)N=C(N)[C@@](C)(F)CC3(F)F)c2)co1 [Compound 7, N-(3-((2R,5S)-6-amino-3,3,5-trifluoro-2,5-dimethyl-2,3,4,5-tetrahydropyridin-2-yl)-4-fluorophenyl)-2-methyloxazole-4-carboxamide]	100
C[C@]1(F)CC(F)(F)[C@@](C)(c2cc(NC(=O)c3nccs3)ccc2F)N=C1N [Compound 8, N-(3-((2R,5S)-6-amino-3,3,5-trifluoro-2,5-dimethyl-2,3,4,5-tetrahydropyridin-2-yl)-4-fluorophenyl)thiazole-2-carboxamide]	104
Cn1cc(Br)nc1C(=O)Nc1ccc(F)c([C@@]2(C)N=C(N)[C@@](C)(F)CC2(F)F)c1 [Compound 9, N-(3-((2R,5S)-6-amino-3,3,5-trifluoro-2,5-dimethyl-2,3,4,5-tetrahydropyridin-2-yl)-4-fluorophenyl)-4-bromo-1-methyl-1H-imidazole-2-carboxamide]	103
Cc1csc(C(=O)Nc2ccc(F)c([C@@]3(C)N=C(N)[C@@](C)(F)CC3(F)F)c2)n1 [Compound 10, N-(3-((2R,5S)-6-amino-3,3,5-trifluoro-2,5-dimethyl-2,3,4,5-tetrahydropyridin-2-yl)-4-fluorophenyl)-4-methylthiazole-2-carboxamide]	102
C[C@]1(F)CC(F)(F)[C@@](C)(c2cc(NC(=O)c3ccc(C(F)(F)F)cn3)ccc2F)N=C1N [Compound 11, N-(3-((2R,5S)-6-amino-3,3,5-trifluoro-2,5-dimethyl-2,3,4,5-tetrahydropyridin-2-yl)-4-fluorophenyl)-5-(trifluoromethyl)picolinamide]	99
COc1cnc(C(=O)Nc2ccc(F)c([C@@]3(C)N=C(N)[C@@](C)(F)CC3(F)F)c2)nc1 [Compound 12, N-(3-((2R,5S)-6-amino-3,3,5-trifluoro-2,5-dimethyl-2,3,4,5-tetrahydropyridin-2-yl)-4-fluorophenyl)-5-methoxpyrimidine-2-carboxamide]	104
C[C@]1(F)CC(F)(F)[C@@](C)(c2cc(NC(=O)c3coc(C(F)F)n3)ccc2F)N=C1N [Compound 13, N-(3-((2R,5S)-6-amino-3,3,5-trifluoro-2,5-dimethyl-2,3,4,5-tetrahydropyridin-2-yl)-4-fluorophenyl)-2-(difluoromethyl)oxazole-4-carboxamide]	99
C[C@]1(F)CC(F)(F)[C@@](C)(c2cc(NC(=O)c3nc(CF)co3)ccc2F)N=C1N [Compound 14, N-(3-((2R,5S)-6-amino-3,3,5-trifluoro-2,5-dimethyl-2,3,4,5-tetrahydropyridin-2-yl)-4-fluorophenyl)-4-(fluoromethyl)oxazole-2-carboxamide]	102
C[C@]1(F)CC(F)(F)[C@@](C)(c2cc(NC(=O)c3nc(CF)cs3)ccc2F)N=C1N [Compound 15, N-(3-((2R,5S)-6-amino-3,3,5-trifluoro-2,5-dimethyl-2,3,4,5-tetrahydropyridin-2-yl)-4-fluorophenyl)-4-(fluoromethyl)thiazole-2-carboxamide]	101
C[C@]1(F)CC(F)(F)[C@@](C)(c2cc(NC(=O)c3cnc(C(F)F)cn3)ccc2F)N=C1N [Compound 16, N-(3-((2R,5S)-6-amino-3,3,5-trifluoro-2,5-dimethyl-2,3,4,5-tetrahydropyridin-2-yl)-4-fluorophenyl)-5-(difluoromethyl)pyrazine-2-carboxamide]	105
COc1cnc(C(=O)Nc2ccc(F)c([C@@]3(C)N=C(N)[C@@](C)(F)CC3(F)F)c2)c(C)n1 [Compound 19, N-(3-((2R,5S)-6-amino-3,3,5-trifluoro-2,5-dimethyl-2,3,4,5-tetrahydropyridin-2-yl)-4-fluorophenyl)-5-methoxy-3-methylpyrazine-2-carboxamide]	98
Cc1nnc(C(=O)Nc2ccc(F)c([C@@]3(C)N=C(N)[C@@](C)(F)CC3(F)F)c2)o1 [Compound 20, N-(3-((2R,5S)-6-amino-3,3,5-trifluoro-2,5-dimethyl-2,3,4,5-tetrahydropyridin-2-yl)-4-fluorophenyl)-5-methyl-1,3,4-oxadiazole-2-carboxamide]	88

Continued, values first:

inhibition at 10 µM [%]	Compound
102	Cc1noc(C(=O)Nc2ccc(F)c([C@@]3(C)N=C(N)[C@@](C)(F)CC3(F)F)c2)n1 [Compound 21, N-(3-((2R,5S)-6-amino-3,3,5-trifluoro-2,5-dimethyl-2,3,4,5-tetrahydropyridin-2-yl)-4-fluorophenyl)-3-methyl-1,2,4-oxadiazole-5-carboxamide]
92	Cn1cnc(C(=O)Nc2ccc(F)c([C@@]3(C)N=C(N)[C@@](C)(F)CC3(F)F)c2)n1 [Compound 22, N-(3-((2R,5S)-6-amino-3,3,5-trifluoro-2,5-dimethyl-2,3,4,5-tetrahydropyridin-2-yl)-4-fluorophenyl)-1-methyl-1H-1,2,4-triazole-3-carboxamide]
102	C[C@@]1(F)CC(F)(F)[C@@](C)(c2cc(NC(=O)c3ccn(C(F)F)n3)ccc2F)N=C1N [Compound 23, N-(3-((2R,5R)-6-amino-3,3,5-trifluoro-2,5-dimethyl-2,3,4,5-tetrahydropyridin-2-yl)-4-fluorophenyl)-1-(difluoromethyl)-1H-pyrazole-3-carboxamide]
102	COc1cnc(C(=O)Nc2ccc(F)c([C@@]3(C)N=C(N)[C@](C)(F)CC3(F)F)c2)cn1 [Compound 25, N-(3-((2R,5R)-6-amino-3,3,5-trifluoro-2,5-dimethyl-2,3,4,5-tetrahydropyridin-2-yl)-4-fluorophenyl)-5-methoxypyrazine-2-carboxamide]
102	COc1cnc(C(=O)Nc2ccc(F)c([C@@]3(C)N=C(N)[C@](C)(F)CC3(F)F)c2)nc1 [Compound 26, N-(3-((2R,5R)-6-amino-3,3,5-trifluoro-2,5-dimethyl-2,3,4,5-tetrahydropyridin-2-yl)-4-fluorophenyl)-5-methoxypyrimidine-2-carboxamide]
98	Cc1csc(C(=O)Nc2ccc(F)c([C@@]3(C)N=C(N)[C@](C)(F)CC3(F)F)c2)n1 [Compound 27, N-(3-((2R,5R)-6-amino-3,3,5-trifluoro-2,5-dimethyl-2,3,4,5-tetrahydropyridin-2-yl)-4-fluorophenyl)-4-methylthiazole-2-carboxamide]
102	C[C@@]1(F)CC(F)(F)[C@@](C)(c2cc(NC(=O)c3ccc(C(F)(F)F)cn3)ccc2F)N=C1N [Compound 28, N-(3-((2R,5R)-6-amino-3,3,5-trifluoro-2,5-dimethyl-2,3,4,5-tetrahydropyridin-2-yl)-4-fluorophenyl)-5-(trifluoromethyl)picolinamide]
101	C[C@@]1(F)CC(F)(F)[C@@](C)(c2cc(NC(=O)c3coc(C(F)F)n3)ccc2F)N=C1N [Compound 29, N-(3-((2R,5R)-6-amino-3,3,5-trifluoro-2,5-dimethyl-2,3,4,5-tetrahydropyridin-2-yl)-4-fluorophenyl)-2-(difluoromethyl)oxazole-4-carboxamide]
103	C[C@@]1(F)CC(F)(F)[C@@](C)(c2cc(NC(=O)c3nc(CF)co3)ccc2F)N=C1N [Compound 30, N-(3-((2R,5R)-6-amino-3,3,5-trifluoro-2,5-dimethyl-2,3,4,5-tetrahydropyridin-2-yl)-4-fluorophenyl)-4-(fluoromethyl)oxazole-2-carboxamide]
102	C[C@@]1(F)CC(F)(F)[C@@](C)(c2cc(NC(=O)c3nc(CF)cs3)ccc2F)N=C1N [Compound 31, N-(3-((2R,5R)-6-amino-3,3,5-trifluoro-2,5-dimethyl-2,3,4,5-tetrahydropyridin-2-yl)-4-fluorophenyl)-4-(fluoromethyl)thiazole-2-carboxamide]
101	C[C@@]1(F)CC(F)(F)[C@@](C)(c2cc(NC(=O)c3ccc(C#N)cn3)ccc2F)N=C1N [Compound 32, N-(3-((2R,5R)-6-amino-3,3,5-trifluoro-2,5-dimethyl-2,3,4,5-tetrahydropyridin-2-yl)-4-fluorophenyl)-5-cyanopicolinamide]
103	C[C@@]1(F)CC(F)(F)[C@@](C)(c2cc(NC(=O)c3ccc(Cl)cn3)ccc2F)N=C1N [Compound 33, N-(3-((2R,5R)-6-amino-3,3,5-trifluoro-2,5-dimethyl-2,3,4,5-tetrahydropyridin-2-yl)-4-fluorophenyl)-5-chloropicolinamide]
